Literature values in patent US11111250B2 (SHILPA MEDICARE LIMITED, priority 2017, dated 2021).

Key:
[1] = aqueous media, pH dependence
[2] = long term and accelerated stability studies, stored in the proposed packaging

Substance	solubility [1]	polymorphic stability [2]
Ribociclib mono succinate	soluble in acidic aqueous media, becoming less soluble as pH increases	
Ribociclib mono succinate [Ribociclib mono succinate form A]		stable and not to convert into other polymorphic forms
